Data published in ChEMBL document CHEMBL2331534, “Design, synthesis and biological evaluation of novel hybrid compounds of imidazole scaffold-based 2-benzylbenzofuran as potent anticancer agents” (Eur J Med Chem, 2013).

What was measured:
SMMC-7721 [1] = test: Cytotoxicity against human SMMC7721 cells assessed as growth inhibition after 48 hrs by MTT assay; format: functional, cell-based; conditions: SMMC-7721, 48 h
MCF7 [2] = test: Cytotoxicity against human MCF7 cells assessed as growth inhibition after 48 hrs by MTT assay; format: functional, cell-based; conditions: MCF7, 48 h
SW480 = test: Cytotoxicity against human SW480 cells assessed as growth inhibition after 48 hrs by MTT assay; format: functional, cell-based; conditions: SW480, 48 h
HL-60 = test: Cytotoxicity against human HL60 cells assessed as growth inhibition after 48 hrs by MTT assay; format: functional, cell-based; conditions: HL-60, 48 h
A549 = test: Cytotoxicity against human A549 cells assessed as growth inhibition after 48 hrs by MTT assay; format: functional, cell-based; conditions: A549, 48 h
SMMC-7721 [3] = test: Ratio of compound IC50 to DDP IC50 for growth inhibition of human SMMC7721 cells; format: functional
MCF7 [4] = test: Ratio of compound IC50 to DDP IC50 for growth inhibition of human MCF7 cells; format: functional

| Compound | IC50 (SMMC-7721 [1]) [µM] | IC50 (MCF7 [2]) [µM] | IC50 (SW480) [µM] | IC50 (HL-60) [µM] | IC50 (A549) [µM] | Ratio IC50 (SMMC-7721 [3]) | Ratio IC50 (MCF7 [4]) |
| --- | --- | --- | --- | --- | --- | --- | --- |
| O=C(C[n+]1ccn(C(c2ccccc2)c2cc3ccccc3o2)c1)c1ccc2ccccc2c1 (configuration not stated) | 3.47 | 3.12 | 14.2 | 1.93 | 7.77 | – | – |
| O=C(C[n+]1cn(C(c2ccccc2)c2cc3ccccc3o2)c2ccccc21)c1ccc2ccccc2c1.[Br-] (configuration not stated) | 2.35 | 3.13 | 3.18 | 1.12 | 3.43 | 6.3 | – |
| O=C(C[n+]1cn(C(c2ccccc2)c2cc3ccccc3o2)c2ccccc21)c1ccc(O)cc1 (configuration not stated) | > 40 | > 40 | > 40 | > 40 | > 40 | – | – |
| Cc1n(C(c2ccccc2)c2cc3ccccc3o2)cc[n+]1CC(=O)c1ccc2ccccc2c1 (configuration not stated) | 4.29 | 2.24 | 4.48 | 1.85 | 8.57 | – | – |
| O=C(C[n+]1ccn(C(c2ccccc2)c2cc3ccccc3o2)c1)c1ccc(O)cc1 (configuration not stated) | > 40 | > 40 | > 40 | > 40 | > 40 | – | – |
| COc1ccc(C(=O)C[n+]2ccn(C(c3ccccc3)c3cc4ccccc4o3)c2C)cc1 (configuration not stated) | 5.29 | 9.84 | 14.4 | 1.65 | 8 | – | – |
| CCc1nccn1C(c1ccccc1)c1cc2ccccc2o1 (configuration not stated) | > 40 | > 40 | > 40 | > 40 | > 40 | – | – |
| C=CC[n+]1ccn(C(c2ccccc2)c2cc3ccccc3o2)c1C (configuration not stated) | > 40 | > 40 | > 40 | > 40 | > 40 | – | – |
| CCCC[n+]1cn(C(c2ccccc2)c2cc3ccccc3o2)c2ccccc21 (configuration not stated) | 7.03 | 15.4 | 29.3 | 2.87 | 12.3 | – | – |
| Cc1n(C(c2ccccc2)c2cc3ccccc3o2)cc[n+]1CC(=O)c1ccc(Br)cc1 (configuration not stated) | 11.1 | 15.2 | 14.5 | 3.3 | 26.1 | – | – |
| Cc1n(C(c2ccccc2)c2cc3ccccc3o2)cc[n+]1CC(=O)c1ccccc1 (configuration not stated) | 14.8 | 10.2 | > 40 | 3.17 | 18.8 | – | – |
| O=C(C[n+]1ccn(C(c2ccccc2)c2cc3ccccc3o2)c1)c1ccc(F)cc1 (configuration not stated) | > 40 | > 40 | > 40 | > 40 | > 40 | – | – |
| CCc1n(C(c2ccccc2)c2cc3ccccc3o2)cc[n+]1Cc1ccccc1 (configuration not stated) | 7.14 | 5.24 | 3.75 | 2.06 | 6.52 | – | – |
| CCc1n(C(c2ccccc2)c2cc3ccccc3o2)cc[n+]1CC(=O)c1ccc(OC)cc1 (configuration not stated) | 7.07 | 9.5 | 17.1 | 2.17 | 5.43 | – | – |
| Cc1n(C(c2ccccc2)c2cc3ccccc3o2)cc[n+]1Cc1ccccc1 (configuration not stated) | > 40 | > 40 | > 40 | > 40 | > 40 | – | – |
| CCc1n(C(c2ccccc2)c2cc3ccccc3o2)cc[n+]1CC(=O)c1ccc2ccccc2c1 (configuration not stated) | 4.48 | 4.2 | 16.4 | 1.86 | 3.23 | – | – |
| O=C(C[n+]1ccn(C(c2ccccc2)c2cc3ccccc3o2)c1)c1ccc(Br)cc1 (configuration not stated) | 5.5 | 12 | 15.5 | 2.64 | 15.5 | – | – |
| c1ccc(C(c2cc3ccccc3o2)n2ccnc2)cc1 (configuration not stated) | > 40 | > 40 | > 40 | > 40 | > 40 | – | – |
| CCc1n(C(c2ccccc2)c2cc3ccccc3o2)cc[n+]1CC(=O)c1ccc(O)cc1 (configuration not stated) | > 40 | > 40 | > 40 | > 40 | > 40 | – | – |
| CCc1n(C(c2ccccc2)c2cc3ccccc3o2)cc[n+]1CC(=O)c1ccc(Br)cc1 (configuration not stated) | 6.14 | 9.5 | 15.5 | 2.94 | 14.1 | – | – |
| Cc1nccn1C(c1ccccc1)c1cc2ccccc2o1 (configuration not stated) | > 40 | > 40 | > 40 | > 40 | > 40 | – | – |
| CCc1n(C(c2ccccc2)c2cc3ccccc3o2)cc[n+]1CC(=O)c1ccc(F)cc1 (configuration not stated) | 10.9 | 13.8 | > 40 | 2.38 | 7.36 | – | – |

| Compound | IC50 (SMMC-7721 [1]) [µM] | IC50 (MCF7 [2]) [µM] | IC50 (SW480) [µM] | IC50 (HL-60) [µM] | IC50 (A549) [µM] | Ratio IC50 (SMMC-7721 [3]) | Ratio IC50 (MCF7 [4]) |
| --- | --- | --- | --- | --- | --- | --- | --- |
| C=CC[n+]1ccn(C(c2ccccc2)c2cc3ccccc3o2)c1 (configuration not stated) | > 40 | > 40 | > 40 | > 40 | > 40 | – | – |
| c1ccc(C(c2cc3ccccc3o2)n2cnc3ccccc32)cc1 (configuration not stated) | > 40 | > 40 | > 40 | > 40 | > 40 | – | – |
| O=C(C[n+]1cn(C(c2ccccc2)c2cc3ccccc3o2)c2ccccc21)c1ccc(Br)cc1 (configuration not stated) | 3.99 | 3.35 | 3.75 | 2.68 | 4.76 | – | – |
| C=CC[n+]1ccn(C(c2ccccc2)c2cc3ccccc3o2)c1CC (configuration not stated) | > 40 | > 40 | > 40 | > 40 | > 40 | – | – |
| O=C(C[n+]1ccn(C(c2ccccc2)c2cc3ccccc3o2)c1)c1ccccc1 (configuration not stated) | > 40 | > 40 | > 40 | > 40 | > 40 | – | – |
| CCCC[n+]1ccn(C(c2ccccc2)c2cc3ccccc3o2)c1 (configuration not stated) | > 40 | > 40 | > 40 | > 40 | > 40 | – | – |
| c1ccc(C[n+]2cn(C(c3ccccc3)c3cc4ccccc4o3)c3ccccc32)cc1 (configuration not stated) | 3.63 | 9.16 | 6.31 | 1.05 | 6.92 | – | – |
| O=C(C[n+]1cn(C(c2ccccc2)c2cc3ccccc3o2)c2ccccc21)c1ccc(F)cc1 (configuration not stated) | 3.98 | 12 | 13.6 | 2.1 | 9.15 | – | – |
| CCc1n(C(c2ccccc2)c2cc3ccccc3o2)cc[n+]1CC(=O)c1ccccc1 (configuration not stated) | 10.6 | 14 | 19.1 | 2.64 | 13.7 | – | – |
| CCCC[n+]1ccn(C(c2ccccc2)c2cc3ccccc3o2)c1CC (configuration not stated) | > 40 | > 40 | > 40 | > 40 | > 40 | – | – |
| COc1ccc(C(=O)C[n+]2ccn(C(c3ccccc3)c3cc4ccccc4o3)c2)cc1 (configuration not stated) | 8.47 | 16.1 | 15.4 | 2.99 | 14.6 | – | – |
| O=C(C[n+]1cn(C(c2ccccc2)c2cc3ccccc3o2)c2ccccc21)c1ccccc1 (configuration not stated) | 5.34 | 9.59 | 15.5 | 2.69 | 14.4 | – | – |
| C=CC[n+]1cn(C(c2ccccc2)c2cc3ccccc3o2)c2ccccc21 (configuration not stated) | > 40 | > 40 | > 40 | > 40 | > 40 | – | – |
| CS(=O)(=O)OC(c1ccccc1)c1cc2ccccc2o1 (configuration not stated) | > 40 | > 40 | > 40 | > 40 | > 40 | – | – |
| c1ccc(C[n+]2ccn(C(c3ccccc3)c3cc4ccccc4o3)c2)cc1 (configuration not stated) | > 40 | > 40 | > 40 | > 40 | > 40 | – | – |
| O=[N+]([O-])c1ccc(C[n+]2ccn(C(c3ccccc3)c3cc4ccccc4o3)c2)cc1 (configuration not stated) | > 40 | > 40 | > 40 | > 40 | > 40 | – | – |
| CCCC[n+]1ccn(C(c2ccccc2)c2cc3ccccc3o2)c1C (configuration not stated) | > 40 | > 40 | > 40 | > 40 | > 40 | – | – |
| O=[N+]([O-])c1ccc(C[n+]2cn(C(c3ccccc3)c3cc4ccccc4o3)c3ccccc32)cc1 (configuration not stated) | 11.5 | 16.4 | 14 | 11 | > 40 | – | – |
| Cc1n(C(c2ccccc2)c2cc3ccccc3o2)cc[n+]1CC(=O)c1ccc(O)cc1 (configuration not stated) | > 40 | > 40 | > 40 | > 40 | > 40 | – | – |
| COc1ccc(C(=O)C[n+]2cn(C(c3ccccc3)c3cc4ccccc4o3)c3ccccc32)cc1.[Br-] (configuration not stated) | 3.09 | 2.29 | 3.55 | 1.02 | 3.57 | – | 4.6 |
| Cc1n(C(c2ccccc2)c2cc3ccccc3o2)cc[n+]1CC(=O)c1ccc(F)cc1 (configuration not stated) | 14.5 | 10.7 | 12.7 | 4.7 | 21.7 | – | – |
